# Assay results as given in patent publication US7749953B2, “Methods compositions and articles of manufacture for modulating bone growth” (Yissum Research Development Company of the Hebrew …, priority 2002, dated 2010).
# Entries after “also recorded” stand apart in the source; their conditions may differ.
# Key:
# [1] = system: 11 week-old C3H (Harlan) mice; test: In vivo bone formation activity, calcein dynamic histomorphometry of distal femoral metaphysis
# Procedure: The endocannabinoid 2-arachidonoyl glycerol (2AG) and the CB1 cannabinoid receptor antagonist N-(piperidin-1-yl)-5-(4-chlorophenyl)-1-(2,4-dichlorophenyl)4-methyl-1H-pyrazole-3-carboxamide hydrochloride (SR-141761A; Panikashvili et al., Nature 413: 527-531 (2001)] were dissolved in 1:1:18 ethanol:emulfor:saline (v/v/v) vehicle. Different dosages of each agent were daily injected intraperitoneally to 11 week-old C3H (Harlan) mice. 2AG was administered at 0 (vehicle control), 0.5, 5, and 20 mg/Kg body weight per day for 9 days; SR-141761A was administered at 1 and 10 mg/Kg body weight per day for 9 days.
# To assess the in vivo bone formation activity the mice were given 15 mg/Kg body weight calcein intrapertoneally, four days and one day (same day as the last 2AG injection) prior to sacrifice. Femoral bones were separated immediately after sacrifice and subjected, undecalcified, to histological processing. Dynamic bone histomorphometric parameters were analyzed in the distal metaphysis (secondary spongiosa) in unstained longitudinal mid-saggital sections, using the procedure described by Parfitt et al. [J. Bone Miner. Res. 2: 595-610 (1987)]. The data obtained were statistically analyzed by Mann-Whitney U-test to determine significance of differences between the treatments.
# mature MC3T3 E1 cells = test: DNA content, TNSALP activity and calcium in mature MC3T3 E1 osteoblasts; format: cell-based, murine; conditions: 20 days osteogenic medium, HU-308 during last 14 days
# Procedure: (§1) In vitro effect of HU-308: Differentiating primary bone marrow stromal cells and MC3T3 E1 osteoblasts were initially incubated in osteogenic medium for 10 days followed by 2 h serum starvation. Ligands were dissolved in dimethylsulfoxide (DMSO) and further diluted to their final concentration using tissue culture medium. In the primary cultures, cells were counted after 48 h incubation in αMEM supplemented with 4% BSA and ligand. BrdU incorporation was determined in MC3T3 E1 cells after 24 h incubation with HU-308 preceded by 2 h with pertussis toxin (PTX). DNA content, tissue non-specific alkaline phosphatase (TNSALP) activity and calcium were determined in MC3T3 E1 cells grown for 20 days in osteogenic medium and supplemented with HU-308 in the last 14 days. The effect of HU-308 on osteoclast differentiation was measured in the osteoclastogenic system described above, supplemented with HU-308 dissolved initially in DMSO and diluted with medium. HU-308 was also tested in a RAW 264.7 cell grown for 7 days in RANKL-supplemented medium. For osteoclast-like cell counts the cultures were fixed in ethanol and TRAP-stained.
# RAW 264.7 cells = test: Osteoclast-like cell count in RAW 264.7 cell culture; format: cell-based; conditions: 7-day RAW 264.7 cell culture supplemented with M-CSF
# Procedure: as §1
# OVX C3H mice = test: OVX-induced femoral bone loss, μCT and histomorphometry; format: in vivo; conditions: HU-308 10 mg/Kg/day i.p.
# Procedure: Animals: Mice with a deletion of the CNR2 gene (CB2^−/− mice) (9) were crossed for 10 generations to wild type C57BL/6J mice to generate a congenic C57BL/6J CB2^−/− strain. The effect of CB2 signalling on OVX-induced bone loss was analysed in normal C3H mice (Harlan, Israel) due to their high femoral bone density (10), which allows for a substantial amount of bone loss to occur. Because of the low trabecular bone volume density in C57BL/6J females (FIG. 8A), the absolute amount of OVX-induced bone loss in these animals is small and a large sample is required to achieve statistical significance. In addition, the number of calcein labelled packets (see below) in OVX C57BL/6J mice is often too small for the calculation of bone formation parameters in the trabecular compartment. HU-308, synthetic CB2 specific agonist with a MW of 414 g/mol, was prepared as described by Hildebrand et al. (11) and injected intraperitoneally to OVX and control mice once daily as ethanol/emulphor/saline (1:1:18) solution. To study bone formation, newly formed bone was vitally labelled in all reported animals by the fluorochrome calcein (Sigma), injected intraperitoneally (15 mg/Kg) four days and one day prior to sacrifice. Groups of 8-10 mice, 8-11 or 51 weeks old, were used in each experiment. The experimental protocols were approved by the Institutional Animal Care and Use Committee, Faculty of Medicine, the Hebrew University of Jerusalem, Israel and by the Regierungspräsidium Köln for the University of Bonn, Germany.
# Micro-computed tomographic (μCT) analysis: The μCT Analyses were performed as described in Example 1 above.
# Histomorphometry and immunohistochemistry: After μCT image acquisition, the specimens were embedded undecalcified in Technovit 9100 (Heraeus Kulzer, Wehrheim, Germany). Longitudinal sections through the mid-frontal plane were left unstained for dynamic histomorphometry based on the vital calcein double labeling. To identify osteoclasts, consecutive sections were stained for tartrate-resistant acid phosphatase (TRAP) (14). Parameters were determined according to a standardized nomenclature (15). Immunohistochemistry was performed using paraffin-embedded decalcified sections (16) with a polyclonal first antibody raised against the human CB2(20-33) peptide (Cayman Ann Arbor, Mich.; Cat. No. 101550). The same peptide (Cayman Ann Arbor, Mich.; Cat. No. 301550) was used to block protein-antibody complex formation in control staining.
# Statistical Analyses: Differences between CB2^−/− and WT mice were analysed by t-test. HU-308 and vehicle treated OVX and sham-OVX mice were analysed by ANOVA. When significant differences were indicated by ANOVA, group means were compared using the Tukey test for pairwise comparisons.
# [2] = system: diaphyseal bone marrow derived stromal cells; test: Cell count, TNSALP activity and mineralization in differentiating primary bone marrow stromal cells (10 days osteogenic medium); format: cell-based, mice; conditions: for number of diaphyseal bone marrow derived stromal cells: cells grown 10 days in osteogenic medium, counted after 48 h with ligand
# Procedure: mRNA analysis: Primary osteoblastogenic cultures of stromal cells were prepared from femoral and tibial diaphyseal bone marrow of WT C57BL/6J mice and grown in “osteogenic medium” containing ascorbic acid, β-glycerophophate and dexamethasone (Sigma) as described by Frenkel et al. (17). Real-time RT-PCR analysis was carried out using Applied Biosystems Assay-on-Demand. Data was normalized GAPDH. Assay ID: GAPDH, Mm99999915_g1; CB1, Mm00432621_s1; CB2, Mm00438286_m1; PTHRc1, Mm00441046_m1; RUNX2, Mm00501578_m1; TNSALP, Mm00475831_m1. RT-PCR analysis was carried out using the primers described by Lee et al. (19).
# as §1
# [3] = system: primary bone marrow derived monocytes; test: Osteoclast differentiation, TRAP-positive osteoclast-like cell count in bone marrow derived monocyte culture with M-CSF and RANKL; format: cell-based, Mouse; conditions: 5 days in the presence of M-CSF and RANKL
# Procedure: Mouse femoral monocytes were separated on a Ficoll gradient and grown in culture for 5 days in medium containing the osteoclast differentiation factors M-CFS and RANKL as described by Zou et al FASEB J 2002; 16:274-82). At the end of incubation cultures were analyzed for CB2 and FAAH expression by RT-PCR as described above, and were stained with an osteoclast marker tartarate-resistant acid phosphatase for direct observation of differentiated osteoclasts.
# as §1, with “Ligands were dissolved in dimethylsulfoxide (DMSO) and further diluted to their final concentration using tissue culture medium.” left out, “HU-308 was also tested in a RAW 264.7 cell grown for 7 days in RANKL-supplemented medium. For osteoclast-like cell counts the cultures were fixed in ethanol and TRAP-stained.” left out
# MC3T3 E1 cells = test: BrdU incorporation (DNA synthesis) in partially differentiated MC3T3 E1 osteoblastic cells; format: cell-based, murine; conditions: 24 h exposure to HU-308
# Procedure: as §1
# [4] = SR-141761A up to 10 mg/Kg/day i.p. for 9 days, data not shown
# [5] = 4 weeks from ovariectomy, distal femoral metaphysis
# [6] = early differentiation stage (10 days osteogenic medium)
# [7] = 2AG up to 5 mg/Kg/day i.p. for 9 days, followed by a plateau
smiles,measurement,setting,value
"Cc1c(C(=O)NN2CCCCC2)nn(-c2ccc(Cl)cc2Cl)c1-c1ccc(Cl)cc1.Cl [SR-141761A, N-(piperidin-1-yl)-5-(4-chlorophenyl)-1-(2,4-dichlorophenyl)4-methyl-1H-pyrazole-3-carboxamide hydrochloride]",BFR (osteoblastic activity) vs vehicle control,[1]; [4],higher (but not statistically different)
same,MP (osteoblast number) vs vehicle control,[1]; [4],higher and statistically different
"CCCCCCC(C)(C)c1cc(OC)c([C@H]2C=C(CO)C3CC2C3(C)C)c(OC)c1 (single isomer, unassigned; (+)) [HU-308, (+)-(1-a-H,-(3-H,5-a-H)-4-(2,6-dimethoxy-4-(1,1-dimethylhept-yl)phenyl]-6,6 dimethylbicycloj3.1.1]hept-2-ene-2-carbinol]",TNSALP activity,mature MC3T3 E1 cells,markedly enhanced
same,accumulation of extracellular mineral,mature MC3T3 E1 cells,markedly enhanced
same,cell number (measured as DNA content),mature MC3T3 E1 cells; compared with partially differentiated cells,milder
same,number of osteoclast-like cells,RAW 264.7 cells,reduced
same,bone formation in the trabecular compartment,OVX C3H mice; 4 weeks from ovariectomy,did not stimulate
same,OVX-induced trabecular bone loss (trabecular bone volume density),OVX C3H mice; [5],attenuation
same,osteoclast number,OVX C3H mice; [5],further inhibited
same,endocortical bone formation,"OVX C3H mice; 4 weeks, mid-diaphysis",vast stimulation
same,size of the medullary cavity,"OVX C3H mice; 4 weeks, mid-diaphysis",significant reduction
same,cortical thickness,"OVX C3H mice; 4 weeks, mid-diaphysis, exceeded OVX and sham-OVX mice",marked increase
same,number of diaphyseal bone marrow derived stromal cells,[2],potently increased
same,TNSALP activity,[2]; [6],unaffected
same,matrix mineralization,[2]; [6],unaffected
same,number of osteoclast-like cells,[3],dose dependently inhibited
same,DNA synthesis (BrdU uptake),MC3T3 E1 cells,stimulation
"CCCCC/C=C\C/C=C\C/C=C\C/C=C\CCCCOC(CO)CO [Noladin ether, 2-arachidonyl glyceryl ether, reference compound]",number of diaphyseal bone marrow derived stromal cells,[2],no significant effect
"CCCCC/C=C\C/C=C\C/C=C\C/C=C\CCCC(=O)OC(CO)CO [2AG, 2-arachidonoyl glycerol]",uptake of fluorescently labeled calcein in bone tissue (fluorescent histological images),[1]; 2AG 5 mg/Kg/day vs vehicle-treated controls,visibly increased
same,mineralizing perimeter (MP) vs control,"[1]; 2AG 5 and 20 mg/Kg/day i.p. for 9 days, p=0.019",substantially and significantly higher
same,bone-formation rate (BFR) higher than the vehicle control,"[1]; 2AG 5 and 20 mg/Kg/day intraperitoneally for 9 days, p=0.04",up to 44%
same,mineral appositional rate,[1]; 2AG i.p. for 9 days,no significant effect
same,"bone-formation rate (BFR), dose response",[1]; [7],dose-dependent stimulation; also recorded: significant positive dose response effect
same,"mineralizing perimeter (MP), dose response",[1]; [7],dose-dependent increase
